Measurements taken from patent US11447505B1, “Pyrrolo[2,3-b]pyridine compounds and their use in the treatment of cancer” (priority 2017, dated 2022).

Key:
MRCKβ = MRCKβ (Homo sapiens (Human), UniProt Q9Y5S2); assay: MRCKβ kinase assay (IMAP fluorescence polarization); assay type: biochemical; conditions: 1 μM ATP; read-out: MRCK-B Average Ki
From the text: MRCKα, MRCKβ, ROCK1 and ROCK2 Kinase Assays

ROCK2 = ROCK2 (Homo sapiens (Human), UniProt O75116); assay: ROCK2 kinase assay (IMAP fluorescence polarization); assay type: biochemical; conditions: 1 μM ATP; read-out: ROCK2 Average Ki
ROCK1 = ROCK1 (Homo sapiens (Human), UniProt Q13464); conditions: read-out: ROCK1 Average Ki; 1 μM ATP
ROCK1, sequence (Q13464 2-1354 limits assumed): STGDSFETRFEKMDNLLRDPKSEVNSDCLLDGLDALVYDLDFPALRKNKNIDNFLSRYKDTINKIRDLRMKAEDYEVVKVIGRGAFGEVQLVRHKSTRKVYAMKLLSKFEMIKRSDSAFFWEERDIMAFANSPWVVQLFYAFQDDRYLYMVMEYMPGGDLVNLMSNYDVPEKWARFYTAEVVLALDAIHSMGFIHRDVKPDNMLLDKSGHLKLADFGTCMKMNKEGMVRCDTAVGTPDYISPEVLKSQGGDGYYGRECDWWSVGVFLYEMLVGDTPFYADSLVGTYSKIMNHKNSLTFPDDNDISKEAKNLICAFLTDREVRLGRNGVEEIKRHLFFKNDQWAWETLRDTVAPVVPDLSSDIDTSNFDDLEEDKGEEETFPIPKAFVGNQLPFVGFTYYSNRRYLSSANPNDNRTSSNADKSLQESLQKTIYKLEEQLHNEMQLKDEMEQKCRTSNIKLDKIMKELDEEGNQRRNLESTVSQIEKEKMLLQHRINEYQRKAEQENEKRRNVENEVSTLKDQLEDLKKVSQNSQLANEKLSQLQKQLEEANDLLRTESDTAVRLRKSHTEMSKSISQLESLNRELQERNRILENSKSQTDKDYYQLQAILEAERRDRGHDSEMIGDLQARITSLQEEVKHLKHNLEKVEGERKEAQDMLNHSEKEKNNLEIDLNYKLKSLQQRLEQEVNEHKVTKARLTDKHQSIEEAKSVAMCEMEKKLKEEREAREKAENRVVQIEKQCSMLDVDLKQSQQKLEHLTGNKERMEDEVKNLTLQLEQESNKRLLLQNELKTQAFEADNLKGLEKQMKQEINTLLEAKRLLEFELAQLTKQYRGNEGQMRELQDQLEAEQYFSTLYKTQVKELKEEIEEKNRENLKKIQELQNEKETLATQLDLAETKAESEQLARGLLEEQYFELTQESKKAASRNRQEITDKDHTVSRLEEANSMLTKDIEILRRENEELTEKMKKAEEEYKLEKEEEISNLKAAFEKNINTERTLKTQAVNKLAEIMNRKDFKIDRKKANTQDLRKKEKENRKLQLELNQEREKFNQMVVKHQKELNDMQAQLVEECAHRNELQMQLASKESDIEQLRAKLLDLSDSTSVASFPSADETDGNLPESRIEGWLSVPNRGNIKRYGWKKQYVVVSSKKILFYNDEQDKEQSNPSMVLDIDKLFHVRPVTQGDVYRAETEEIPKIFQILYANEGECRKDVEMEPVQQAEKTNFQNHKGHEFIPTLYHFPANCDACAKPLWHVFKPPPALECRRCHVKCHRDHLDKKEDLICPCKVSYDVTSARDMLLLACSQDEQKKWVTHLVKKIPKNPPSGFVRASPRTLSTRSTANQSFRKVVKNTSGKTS
Experimental: MRCKα, MRCKβ, ROCK1 and ROCK2 assays were performed using an IMAP fluorescence polarization assay format (Molecular Devices Inc.). […] Typically, dose response analyses were performed over concentration ranges from 0.005-100 μM. […] After 30 min incubation to allow binding reagent to bind phosphorylated peptide, fluorescence polarization was measured on a Tecan Saphire^2 plate reader at excitation (470 nm) and emission (530 nm) wavelengths.

ROCK2, sequence (O75116 whole entry): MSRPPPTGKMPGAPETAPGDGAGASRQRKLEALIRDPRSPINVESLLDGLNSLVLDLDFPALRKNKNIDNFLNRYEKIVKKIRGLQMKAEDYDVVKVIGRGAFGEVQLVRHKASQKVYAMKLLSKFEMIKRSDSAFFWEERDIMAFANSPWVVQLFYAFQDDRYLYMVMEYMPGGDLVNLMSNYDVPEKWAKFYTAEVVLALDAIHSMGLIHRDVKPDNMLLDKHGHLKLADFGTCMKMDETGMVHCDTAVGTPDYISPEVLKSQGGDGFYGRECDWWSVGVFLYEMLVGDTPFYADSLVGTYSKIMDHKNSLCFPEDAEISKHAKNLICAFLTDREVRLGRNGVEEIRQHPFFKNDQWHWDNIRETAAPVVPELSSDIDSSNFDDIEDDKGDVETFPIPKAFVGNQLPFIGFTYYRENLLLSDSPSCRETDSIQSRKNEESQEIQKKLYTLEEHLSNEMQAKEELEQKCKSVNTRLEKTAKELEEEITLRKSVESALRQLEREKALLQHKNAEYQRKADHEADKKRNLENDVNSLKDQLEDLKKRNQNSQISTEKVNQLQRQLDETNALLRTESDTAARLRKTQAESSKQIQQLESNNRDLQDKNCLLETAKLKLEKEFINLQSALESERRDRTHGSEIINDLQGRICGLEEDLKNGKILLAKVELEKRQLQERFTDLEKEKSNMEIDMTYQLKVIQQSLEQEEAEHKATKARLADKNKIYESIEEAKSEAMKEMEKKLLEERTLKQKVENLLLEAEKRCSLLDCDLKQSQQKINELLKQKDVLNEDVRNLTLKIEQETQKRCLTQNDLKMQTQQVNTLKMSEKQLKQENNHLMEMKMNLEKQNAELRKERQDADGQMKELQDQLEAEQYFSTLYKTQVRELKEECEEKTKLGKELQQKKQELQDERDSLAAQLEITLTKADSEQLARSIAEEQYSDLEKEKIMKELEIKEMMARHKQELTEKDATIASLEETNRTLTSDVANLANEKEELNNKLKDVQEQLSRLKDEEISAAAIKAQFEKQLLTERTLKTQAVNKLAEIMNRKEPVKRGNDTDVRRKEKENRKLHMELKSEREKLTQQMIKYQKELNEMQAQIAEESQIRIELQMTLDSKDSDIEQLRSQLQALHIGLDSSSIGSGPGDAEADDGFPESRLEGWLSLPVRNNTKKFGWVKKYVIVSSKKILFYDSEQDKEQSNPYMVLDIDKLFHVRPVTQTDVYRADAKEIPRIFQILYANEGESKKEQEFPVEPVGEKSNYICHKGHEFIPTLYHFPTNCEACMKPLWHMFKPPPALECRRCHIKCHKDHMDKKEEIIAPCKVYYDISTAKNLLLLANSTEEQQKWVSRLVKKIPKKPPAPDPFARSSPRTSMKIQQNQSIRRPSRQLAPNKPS

| Compound | Ki (MRCKβ) [nM] | Ki (ROCK2) [nM] | Ki (ROCK1) [nM] |
| --- | --- | --- | --- |
| 4-[4-(1-piperidyl)-1H-pyrrolo[2,3-b]pyridin-3-yl]pyridin-2-amine [Example E9] | 0.886 | 1.25 | 1.5 |
| 4-morpholino-1H-pyrrolo[2,3-b]pyridine-3-carbonitrile [Example E33] | 87.1 | 127 | 196 |
| CN[C@H]1CCCN(c2ccnc3[nH]cc(-c4cncnc4)c23)[C@H]1C (relative stereo) [Example E179, cis-N,2-dimethyl-1-(3-pyrimidin-5-yl-1H-pyrrolo[2,3-b]pyridin-4-yl)piperidin-3-amine] | 128 | 1090 | 1290 |
| CN(C1CC1)[C@H]1CCCN(c2ccnc3[nH]cc(-c4cncnc4)c23)C1 (stereo in doubt) [Example E80] | 8.3 | 228 | 499 |
| Cc1cnc2[nH]cc(-c3cncnc3)c2c1N1CCCCC1 [Example E1, 5-methyl-4-(1-piperidyl)-3-pyrimidin-5-yl-1H-pyrrolo[2,3-b]pyridine] | 64.6 | 6500 | 15000 |
| Nc1cccc(-c2c[nH]c3nccc(N4CCCCC4)c23)n1 [Example E3, 6-[4-(1-piperidyl)-1H-pyrrolo[2,3-b]pyridin-3-yl]pyridin-2-amine] | 39.9 | 13.8 | 28.6 |
| c1cc(-c2c[nH]c3nccc(N4CCCCC4)c23)ncn1 [Example E4, 4-(1-piperidyl)-3-pyrimidin-4-yl-1H-pyrrolo[2,3-b]pyridine] | 15.5 | 19.7 | 28.3 |
| CNc1cc(-c2c[nH]c3nccc(N4CCCCC4)c23)ccn1 [Example E5, N-methyl-4-[4-(1-piperidyl)-1H-pyrrolo[2,3-b]pyridin-3-yl]pyridin-2-amine] | 3.02 | 22.5 | 40.8 |
| N#Cc1cc(-c2c[nH]c3nccc(N4CCCCC4)c23)cnc1N [Example E7, 2-amino-5-[4-(1-piperidyl)-1H-pyrrolo[2,3-b]pyridin-3-yl]pyridine-3-carbonitrile] | 357 | 245 | 501 |
| N#Cc1cncc(-c2c[nH]c3nccc(N4CCCCC4)c23)c1 [Example E8, 5-[4-(1-piperidyl)-1H-pyrrolo[2,3-b]pyridin-3-yl]pyridine-3-carbonitrile] | 541 | 3270 | 10000 |
| Nc1ccc(-c2c[nH]c3nccc(N4CCCCC4)c23)cn1 [Example E10, 5-[4-(1-piperidyl)-1H-pyrrolo[2,3-b]pyridin-3-yl]pyridin-2-amine] | 51.8 | 45.7 | 74.9 |
| Fc1cncc(-c2c[nH]c3nccc(N4CCCCC4)c23)c1 [Example E11, 3-(5-fluoro-3-pyridyl)-4-(1-piperidyl)-1H-pyrrolo[2,3-b]pyridine] | 42.3 | 374 | 755 |
| Clc1cncc(-c2c[nH]c3nccc(N4CCCCC4)c23)c1 [Example E12, 3-(5-chloro-3-pyridyl)-4-(1-piperidyl)-1H-pyrrolo[2,3-b]pyridine] | 366 | 574 | 2150 |
| CNC(=O)c1cncc(-c2c[nH]c3nccc(N4CCCCC4)c23)c1 [Example E13, N-methyl-5-[4-(1-piperidyl)-1H-pyrrolo[2,3-b]pyridin-3-yl]pyridine-3-carboxamide] | 378 | 1740 | 10000 |
| c1cc(-c2c[nH]c3nccc(N4CCCCC4)c23)cnn1 [Example E14, 4-(1-piperidyl)-3-pyridazin-4-yl-1H-pyrrolo[2,3-b]pyridine] | 9.4 | 6.5 | 9 |
| c1cnnc(-c2c[nH]c3nccc(N4CCCCC4)c23)c1 [Example E15, 4-(1-piperidyl)-3-pyridazin-3-yl-1H-pyrrolo[2,3-b]pyridine] | 56.5 | 362 | 482 |
| c1cnc(-c2c[nH]c3nccc(N4CCCCC4)c23)cn1 [Example E16, 4-(1-piperidyl)-3-pyrazin-2-yl-1H-pyrrolo[2,3-b]pyridine] | 61.8 | 159 | 504 |
| c1ccc2c(-c3c[nH]c4nccc(N5CCCCC5)c34)n[nH]c2c1 [Example E17, 3-(1H-indazol-3-yl)-4-(1-piperidyl)-1H-pyrrolo[2,3-b]pyridine] | 696 | 10000 | 10000 |
| Cn1nccc1-c1c[nH]c2nccc(N3CCCCC3)c12 [Example E18, 3-(2-methylpyrazol-3-yl)-4-(1-piperidyl)-1H-pyrrolo[2,3-b]pyridine] | 818 | 2480 | 10000 |
